Test results from patent publication US10450274B2, “Quinoline compounds, preparation methods thereof, and uses thereof as urate transporter inhibitor drug” (HINOVA PHARMACEUTICALS INC., priority 2015, dated 2019).
“And” between values parts separate entries of the source, which are not always exact repeats. Equal entries are not always repeated.

These compounds were tested against T1, hURAT1 (Homo sapiens, UniProt Q96S37) (assay: Inhibitory activity against URAT1: 14C-labelled uric acid uptake in HEK-293t cells stably expressing hURAT1). Settings: HEK-293t/hURAT1 cells, 14C uric acid uptake, 5 minutes at room temperature; Ref Cpd 2, 83, Ref Cpd 3 and 129 are averages of head-to-head tests; read-out: IC50 (nM) of hURAT1 inhibitory activity.
T1 sequence (Q96S37 1-553): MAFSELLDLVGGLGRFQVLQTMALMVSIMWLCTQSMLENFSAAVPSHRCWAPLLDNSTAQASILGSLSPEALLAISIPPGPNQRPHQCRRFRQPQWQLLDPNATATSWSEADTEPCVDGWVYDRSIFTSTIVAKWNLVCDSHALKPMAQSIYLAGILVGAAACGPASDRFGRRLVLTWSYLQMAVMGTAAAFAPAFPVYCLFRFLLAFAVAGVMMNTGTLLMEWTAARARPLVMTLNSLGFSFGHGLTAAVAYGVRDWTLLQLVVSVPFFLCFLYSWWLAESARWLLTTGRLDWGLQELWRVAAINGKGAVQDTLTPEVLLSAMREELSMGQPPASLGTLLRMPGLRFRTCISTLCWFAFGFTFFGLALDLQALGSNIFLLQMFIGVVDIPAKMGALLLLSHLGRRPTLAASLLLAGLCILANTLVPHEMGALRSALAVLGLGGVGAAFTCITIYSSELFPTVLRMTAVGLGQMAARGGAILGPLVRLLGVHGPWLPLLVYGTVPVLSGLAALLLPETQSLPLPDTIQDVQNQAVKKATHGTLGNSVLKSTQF
Assay type: cell-based
Description: • Test example: Determination of the inhibitory activity of compounds according to the present invention against URAT1 Experimental Materials • FBS (Invitrogen, Cat. No. 10099141) • Trypsin (Invitrogen, Cat. No. 25200056) • DPBS (Invitrogen, Cat. No. 14190250) • DMEM (Invitrogen, Cat. No. 10564) • Penicillin-Streptomycin (Invitrogen, Cat. No. 15070-063) • TransIT-293 Transfection Reagent (MIRUS BIO, Cat. No. MIR2706) • Opti-MEM® I Reduced Serum Medium (Invitrogen, Cat. No. 31985-070) • URAT1 plasmid (Genecopoeia, Cat. No. EX-T4563-M03) • Uric acid [8-14C] (ARC, Cat. No. ARC0513-250UCI) • Ultima Gold™ XR (PerkinElmer, Cat. No. 6013111) • Benzbromarone (J&K Scientific, Cat. No. 3562-84-3) • D-Gluconic acid sodium salt (Aladdin, Cat. No. 527-07-1) • Potassium D-gluconate (Aladdin, Cat. No. 299-27-4) • Calcium gluconate (Aladdin, Cat. No. 299-28-5) • DMSO (Sigma, Cat. No. D2650) • Tube, 15 ml (Greiner, Cat. No. 07030115) • Tube, 50 ml (BD Falcon, Cat. No. 352098) • Poly-D-lysine 96-well microplates (BD, Cat. No. 356461) • Isoplate-96 Microplate (PERKIN ELMER, Cat. No. 6005040) Experimental Method:
Cell Culture: • 1. The HEK-293t cells that expressed the stable expression of hURAT1 were cultured in DMEM medium containing 10% FBS and 1% P/S, and incubated overnight in the incubator at 37° C. under 5% carbon dioxide. • 2. the culture medium was removed, and the cells were washed with PBS, and then the pancreatin was added to digest for 2 minutes. After the cell is separated from the dish, 10 ml of medium was added to terminate digestion. • 3. The cells were placed into a centrifugal apparatus and centrifugated for 2 minutes at the speed of 1000 rpm, followed by the addition of fresh 10 mL medium to resuspend the cells, and calculate the number of cells. The number of cells was adjusted to 4×10^5 cells/mL. • 4. the above counted cells were inoculated into the 96-well plate at 100 μL/well. • 5. The 96-well plate with inoculated cells was placed in a 37° C. cell incubator and cultivated overnight.
The uric acid absorption experiment labeled with isotope C14: • 1. 5 mL of Cl-free HBSS buffer was added to a 15 mL centrifuge tube, followed by the addition of the uric acid labeled with C14, and the concentration of uric acid was 2 uCi/ml. • 2. The medium in the 96-well plate that was previously cultivated overnight was removed, and the plate was washed three times with […] preheated Cl-free HBSS buffer. • 3. The buffer in the well-washed 96-well plate was removed. • 4. […] Cl-free HBSS buffer containing C-14 labeled uric acid was added into each well in the cleaned 96-well plate, and then DMSO solution of the compound that needs to be tested was added. • 5. After the 96-well plate stood for 5 minutes at room temperature, all the liquid in it was removed. • 6. […] precooled Cl-free HBSS buffer was added to wash the plate three times. • 7. After the remained liquid in the plates was completely removed, 50 μL cell lysis was added to each well, and the plate was agitated on the mixer at a speed of 600 revolutions/min for 10 minutes. • 8. After 50 μL Ultima Gold™ XR scitillation cocktail fluid was added, the plate was continued to agitate for 10 minutes. The well-agitated plate was sealed, and the data was read on MicroBeta Trilux. • 9. The test compound was dissolved in DMSO, and DMSO at the same concentration was added to the HEK293/hURAT1 cell well without test compounds. […] The radiation value obtained from the well containing DMSO is considered to be 100% of the cell uptake. The IC50 values of compounds can be calculated by the inhibition rate at different concentrations.
Among them, reference compound 1 was synthesized according to the method described in patent WO 2011/159839 A2. Reference compound 2 and reference compound 3 were synthesized according to the method described in patent WO 2014/183555 A1, and they were head-to-head tested with compounds 83 and 129 respectively under the same conditions.

Row | Compound | IC50
1 | O=C(O)C1(Sc2ccnc3ccc(Br)cc23)CCC1 [Ref Cpd 2, reference compound] | 138 nM
2 | COc1cc(-c2ccc3nccc(SC(C)(C)C(=O)O)c3c2)ccn1 [Compound 115, 2-(6-(2-methoxypyridin-4-yl)quinolin-4-ylthio)-2-methylpropanoic acid] | 79 nM
3 | CC(C)C(Sc1ccnc2ccc(Br)cc12)C(=O)O (centres unmarked) [Compound 94, 2-(6-bromoquinolin-4-ylthio)-3-methylbutanoic acid] | 4300 nM
4 | CCC(CC)(Sc1ccnc2ccc(-c3cccc(OC4CC4)c3)cc12)C(=O)O [Compound 112, 2-(6-(3-cyclopropyloxy-phenyl)-quinolin-4-ylthio)-2-ethylbutanoic acid] | 147 nM
5 | CC(C)(Sc1ccnc2ccc(-c3cccc(F)c3)cc12)C(=O)O [Compound 28, 2-(6-(3-fluorophenyl)-quinolin-4-ylthio)-2-methylpropanoic acid] | 351 nM
6 | CC(C)(Sc1ccnc2ccc(-c3cccnc3)cc12)C(=O)O [Compound 3, 2-(6-(pyridin-3-yl)quinolin-4-ylthio)-2-methylpropanoic acid] | 514 nM
7 | CC(C)(Sc1ccnc2ccc(-c3ccncc3)cc12)C(=O)O [Compound 4, 2-(6-(pyridin-4-yl)quinolin-4-ylthio)-2-methylpropanoic acid] | 127 nM
8 | CCC(CC)(Sc1ccnc2ccc(-c3cccc(OC4CCC4)c3)cc12)C(=O)O [Compound 111, 2-(6-(3-cyclobutyloxy-phenyl)-quinolin-4-ylthio)-2-ethylbutanoic acid] | 267 nM
9 | CC(C)(Sc1ccnc2ccccc12)C(=O)O [Compound 93, 2-(quinolin-4-ylthio)-2-methylpropanoic acid] | 2400 nM
10 | O=C(O)C1(Sc2ccnc3ccccc23)CCC1 [Ref Cpd 3, reference compound] | 794 nM
11 | CC(C)(Sc1ccnc2ccc(C3CC3)cc12)C(=O)O [Compound 1, 2-(6-cyclopropylquinolin-4-ylthio)-2-methylpropanoic acid] | 486 nM
12 | CCC(CC)(Sc1ccnc2ccccc12)C(=O)O [Compound 129] | 201 nM

Same assay, conditions: average of the multiple head-to-head comparison tests, Table 2; read-out: Average (IC50 of multiple determinations)

Row | Compound | IC50
13 | O=C(O)C1(Sc2ccnc3ccc(Br)cc23)CCC1 [Ref Cpd 2, reference compound] | 138 nM

Same assay, conditions: single determinations of multiple head-to-head tests, Ref cpd 2 vs Cpd 83; read-out: Multiple determination data (IC50)

Row | Compound | IC50
14 | O=C(O)C1(Sc2ccnc3ccc(Br)cc23)CCC1 [Ref Cpd 2, reference compound] | 72.9 nM and 185 nM and 172 nM and 164 nM and 144 nM and 127 nM and 99 nM
